Our source for the IC50 values is patent publication US9914724B2, “C-aryl glycosid derivatives, pharmaceutical composition, preparation process and uses thereof” (SHANGHAI DE NOVO PHARMATECH CO. LTD., priority 2014, dated 2018).

One assay has as its target T1, SGLT-1 (Homo sapiens, UniProt P13866).
T1 sequence (P13866 1-664): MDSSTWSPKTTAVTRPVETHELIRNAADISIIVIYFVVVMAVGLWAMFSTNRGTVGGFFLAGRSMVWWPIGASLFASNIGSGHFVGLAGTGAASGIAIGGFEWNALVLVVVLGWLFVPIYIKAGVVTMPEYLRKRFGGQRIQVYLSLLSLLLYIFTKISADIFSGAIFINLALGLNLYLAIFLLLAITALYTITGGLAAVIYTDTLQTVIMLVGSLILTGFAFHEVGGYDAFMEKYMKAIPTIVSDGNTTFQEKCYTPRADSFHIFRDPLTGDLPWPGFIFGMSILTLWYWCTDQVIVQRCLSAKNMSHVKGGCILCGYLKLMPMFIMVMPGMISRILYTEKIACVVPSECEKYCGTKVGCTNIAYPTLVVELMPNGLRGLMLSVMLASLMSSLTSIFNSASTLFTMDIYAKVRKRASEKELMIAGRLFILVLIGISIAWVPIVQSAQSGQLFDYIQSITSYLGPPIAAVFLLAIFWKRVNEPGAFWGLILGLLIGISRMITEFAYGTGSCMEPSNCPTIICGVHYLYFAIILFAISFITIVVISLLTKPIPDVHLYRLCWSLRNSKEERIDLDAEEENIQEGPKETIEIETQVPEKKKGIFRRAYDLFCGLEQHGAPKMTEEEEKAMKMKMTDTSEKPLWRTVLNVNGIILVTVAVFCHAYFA
The experiment in a line: [14C]-AMG absorption in stable SGLT1 expressing Flp-in CHO cells (SGLT-1 activity screening assay). It counts as cell-based. The settings on record: 14C-AMG uptake, 37° C. 1 h, 1% DMSO. The source says: (§1) Example 1: [^14C]-AMG Absorption in Stable SGLT1 and SGLT2 Expressing Flp-in CHO Cells (SGLT-1 and SGLT-2 Activity Screening Assay)
(§2) SGLT-1 and SGLT-2 cDNA clones were purchased from OriGene. After sequencing verification, the expression vectors were constructed based on pcDNA5/FRT using conventional molecular biology method. The expression vector was transfected into Flp-in CHO cells using Lipofectamin 2000. The transfected cells were subject hygromycin selection. The single clones of cells were selected by serial dilutions 4-5 weeks after transfection. The expression of SGLT-1 ? SGLT-2 were confirmed by RT-PCR and functional assay and cell line with strong signal was selected for subsequent study.
(§3) Culture of stable SGLT-1 and SGLT-2 expressing Flp-in CHO cell line: the culture media contain F12 medium (Invitrogen), 500 μg/ml hygromycin (Calbiochem) and 10% FBS (Invitrogen). Upon 80% confluency, the cells in the T75 flask were washed three times with PBS (Invitrogen), and 5 mL of Trpsin-EDTA solution (Invitrogen) was then added. The flask was gently rotated so that all the cells were submerged in the digestion solution. After the cells detach, 10 mL of culture medium was added and single cell suspension was prepared by pipetting up and down. The cell concentration was adjusted to 3×10^5/mL, 100 μL/well was added onto clear bottom 96-well plate (Corning).
(§4) The cells were ready for absorption assay once they attached after overnight culture. 12 h after cell plating, the cells were washed once with 150 μL/well absorption solution KRH-NMG (120 mM NMG, 4.7 mM KCl, 1.2 mM MgCl2, 2.2 mM CaCl2, 10 mM HEPES, pH 7.4 1 mM Tris). The solution was then removed from the well. 2.5 μCi/mL ^14C labeled AMG (PerkinElmer) Buffer KRH-Na+ (120 mM NaCl, 4.7 mM KCl, 1.2 mM MgCl2, 2.2 mM CaCl2, 10 mM HEPES, pH 7.4 1 mM Tris) was added at […] after washing with Buffer KRH-Na+ and KRH-NMG. The corresponding compound I was immediately added at 5 μL/well, ensuring the concentration of Dimethyl Sulfoxide was 1% (v/v). The plate was subsequently incubated at 37° C. for 1 h, after which 150 μL of ice cold wash buffer (120 mM NaCl, 4.7 mM KCl, 1.2 mM MgCl2, 2.2 mM CaCl2, 10 mM HEPES, 0.5 mM phlorizin, pH 7.4 1 mM Tris) was immediately added to terminate the reaction. Each well was washed three times with wash buffer and finally the solution was removed. Caution was taken to avoid cell detachment during the procedure. 20 μL/well of Lysis Buffer (0.1 mM NaOH) was added, the plate was vortexed at 900 rpm for 5 min. 80 μL/well of scintillation solution Microsint40 was added, and vortexed at 900 rpm for 5 min. The radioactivity was assayed using MicroBeta Trilux (PerkinElmer). The data was analyzed and IC50 of the compounds was calculated using XL-fit software.

In a further assay the target is T2, SGLT-2 (Homo sapiens, UniProt P31639).
T2 sequence (P31639 1-672): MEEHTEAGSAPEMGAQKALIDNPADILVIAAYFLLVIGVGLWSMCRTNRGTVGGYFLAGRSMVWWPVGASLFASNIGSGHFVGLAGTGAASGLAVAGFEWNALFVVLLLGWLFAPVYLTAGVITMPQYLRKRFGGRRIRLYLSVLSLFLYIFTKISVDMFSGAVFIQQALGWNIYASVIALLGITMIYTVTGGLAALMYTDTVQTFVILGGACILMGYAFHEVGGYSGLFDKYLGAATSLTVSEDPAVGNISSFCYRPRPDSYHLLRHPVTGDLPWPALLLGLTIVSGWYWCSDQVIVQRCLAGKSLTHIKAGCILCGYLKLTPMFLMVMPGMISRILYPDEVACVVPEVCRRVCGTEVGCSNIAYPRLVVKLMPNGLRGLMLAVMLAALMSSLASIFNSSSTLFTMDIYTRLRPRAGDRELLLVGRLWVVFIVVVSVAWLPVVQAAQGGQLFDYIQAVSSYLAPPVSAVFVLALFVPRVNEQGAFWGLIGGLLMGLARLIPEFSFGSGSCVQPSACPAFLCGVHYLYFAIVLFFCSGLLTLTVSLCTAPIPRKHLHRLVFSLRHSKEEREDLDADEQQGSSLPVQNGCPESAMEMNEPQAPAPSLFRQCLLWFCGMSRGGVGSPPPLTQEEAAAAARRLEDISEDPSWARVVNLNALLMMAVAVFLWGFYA
The experiment in a line: [14C]-AMG absorption in stable SGLT2 expressing Flp-in CHO cells (SGLT-2 activity screening assay). It counts as cell-based. As to conditions: 14C-AMG uptake, 37° C. 1 h, 1% DMSO.
Description: as §1, §2, §3, §4

Broadly, the IC50 is the concentration at which inhibition is half-maximal. High values mean lower potency, low ones higher potency. Turning to `OC[C@H]1O[C@@H](c2ccc(Cl)c(Cc3ccc(OC[C@H]4OCc5ccccc54)cc3)c2)[C@H](O)[C@@H](O)[C@@H]1O` [Compound I-37, (2S,3R,4R,5S,6R)-2-(4-chloro-3-(4-(((S)-1,3-dihydroisobenzofuran-1-yl)methoxy)benzyl)phenyl)-6-(hydroxymethyl)tetrahydro-2H-pyran-3,4,5-triol], the IC50 against SGLT-1 is 615 nM; against SGLT-2 it was 2 nM.

Turning to `OC[C@H]1O[C@@H](c2ccc(Cl)c(Cc3ccc(OC[C@@H]4Cc5ccccc5O4)cc3)c2)[C@H](O)[C@@H](O)[C@@H]1O` [Compound I-23, (2S,3R,4R,5S,6R)-2-(4-chloro-3-(4-(((S)-2,3-dihydrobenzofuran-2-yl)methoxy)benzyl)phenyl)-6-(hydroxymethyl)tetrahydro-2H-pyran-3,4,5-triol], the IC50 against SGLT-1 was determined as 301 nM; against SGLT-2, 3 nM. In turn, `CC1(C)OC(COc2ccc(Cc3cc([C@@H]4O[C@H](CO)[C@@H](O)[C@H](O)[C@H]4O)ccc3Cl)cc2)c2ccccc21` (stereo partly drawn) [Compound I-63, (2S,3R,4R,5S,6R)-2-(4-chloro-3-(4-((3,3-dimethyl-1,3-dihydroisobenzofuran-1-yl)methoxy)benzyl)phenyl)-6-(hydroxymethyl)tetrahydro-2H-pyran-3,4,5-triol] had an IC50 against SGLT-2 of 5.6 nM.

As to `N#Cc1ccc([C@@H]2O[C@H](CO)[C@@H](O)[C@H](O)[C@H]2O)cc1Cc1ccc(OCC2Cc3ccccc3O2)cc1` (stereo partly drawn) [Compound I-28, 2-(4-((2,3-dihydrobenzofuran-2-yl)methoxy)benzyl)-4-((2S,3R,4R,5S,6R)-3,4,5-trihydroxy-6-(hydroxymethyl)tetrahydro-2H-pyran-2-yl)benzonitrile], the IC50 at SGLT-1 is 41400 nM; at SGLT-2, above 2000 nM. The corresponding values for `CC1(COc2ccc(Cc3cc([C@@H]4O[C@H](CO)[C@@H](O)[C@H](O)[C@H]4O)ccc3Cl)cc2)Cc2ccccc2O1` (single isomer, unassigned) [Compound I-106] are 700 nM and 18.2 nM. On to `OC[C@H]1O[C@@H](c2ccc(Cl)c(Cc3ccc(OCC4Cc5c(F)cccc5O4)cc3)c2)[C@H](O)[C@@H](O)[C@@H]1O` (stereo partly drawn) [Compound I-31, (2S,3R,4R,5S,6R)-2-(4-chloro-3-(4-((4-fluoro-2,3-dihydrobenzofuran-2-yl)methoxy)benzyl)phenyl)-6-(hydroxymethyl)tetrahydro-2H-pyran-3,4,5-triol], for which the IC50 against SGLT-1 was 365 nM; against SGLT-2, 6.5 nM.

`OC[C@H]1O[C@@H](c2ccc(Cl)c(Cc3ccc(OCCC4Cc5ccccc5O4)cc3)c2)[C@H](O)[C@@H](O)[C@@H]1O` (stereo partly drawn) [Compound I-60, (2S,3R,4R,5S,6R)-2-(4-chloro-3-(4-(2-(2,3-dihydrobenzofuran-2-yl)ethoxy)benzyl)phenyl)-6-(hydroxymethyl)tetrahydro-2H-pyran-3,4,5-triol] yielded an IC50 against SGLT-2 of 38 nM. As to `CC1(COc2ccc(Cc3cc([C@@H]4O[C@H](CO)[C@@H](O)[C@H](O)[C@H]4O)ccc3Cl)cc2)Cc2ccccc2O1` (single isomer, unassigned) [Compound I-107], the IC50 on SGLT-1 was 31400 nM; at SGLT-2, above 2000 nM.

Consider `Cc1ccc([C@@H]2O[C@H](CO)[C@@H](O)[C@H](O)[C@H]2O)cc1Cc1ccc(OCC2(C)Cc3ccccc3O2)cc1` (single isomer, unassigned) [Compound I-111], for which the IC50 on SGLT-1 was 34400 nM; on SGLT-2 it was above 2000 nM. The corresponding values for `Cc1ccc([C@@H]2O[C@H](CO)[C@@H](O)[C@H](O)[C@H]2O)cc1Cc1ccc(OCC2(C)OCc3ccccc32)cc1` (single isomer, unassigned) [Compound I-114] are 997 nM and 5.2 nM. For `OC[C@H]1O[C@@H](c2cccc(Cc3ccc(OCc4cc5ccccc5o4)cc3)c2)[C@H](O)[C@@H](O)[C@@H]1O` [Compound I-6, (2S,3R,4R,5S,6R)-2-(3-(4-(benzofuran-2-ylmethoxy)benzyl)phenyl)-6-(hydroxymethyl)tetrahydro-2H-pyran-3,4,5-triol], on SGLT-2, the concentration for half-maximal inhibition (IC50) was 36 nM.
